In patent US8735406B2, “8-oxodihydropurine derivative” (Dainippon Sumitomo Pharma Co., Ltd., priority 2009, dated 2014):

Target: T1, FAAH (Rattus norvegicus, UniProt P97612)
T1 construct: Preparation of Rat Brain Membranes Preparations (FAAH Enzyme Solution); from tissue; host or cells: rat cerebrum (brain membrane preparation)
T1 sequence (P97612 1-579): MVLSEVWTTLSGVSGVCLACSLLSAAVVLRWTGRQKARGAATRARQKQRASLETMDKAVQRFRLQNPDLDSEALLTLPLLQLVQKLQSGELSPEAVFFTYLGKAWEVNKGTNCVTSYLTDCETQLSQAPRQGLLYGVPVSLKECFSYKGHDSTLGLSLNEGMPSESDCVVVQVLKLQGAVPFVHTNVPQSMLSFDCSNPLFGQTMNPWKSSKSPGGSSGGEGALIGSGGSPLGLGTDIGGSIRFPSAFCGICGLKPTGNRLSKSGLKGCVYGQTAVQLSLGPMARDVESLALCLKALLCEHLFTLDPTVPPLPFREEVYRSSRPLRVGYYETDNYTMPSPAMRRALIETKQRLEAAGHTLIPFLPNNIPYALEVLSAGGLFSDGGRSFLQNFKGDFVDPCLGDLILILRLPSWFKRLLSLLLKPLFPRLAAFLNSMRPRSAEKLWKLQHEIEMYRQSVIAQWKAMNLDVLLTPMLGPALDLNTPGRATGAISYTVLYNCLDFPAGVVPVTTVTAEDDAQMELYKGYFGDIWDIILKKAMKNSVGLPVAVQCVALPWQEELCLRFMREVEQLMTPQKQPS
Assay: Determination of FAAH inhibitory activity in rat (rat brain membrane preparations, [3H]-anandamide hydrolysis)
Format: biochemical
Conditions: rat brain membrane preparations; for inhibition at 0.1 µM: 100 nM test substance, read-out: FAAH Inhibition, Inhibition Rate at 100 nM; for IC50: test substance 0.1 nM to 1 μM, read-out: FAAH Inhibition IC50
How it was run: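 Rat cerebrum membranes (100 μg/mL protein) preincubated 10 min at 37 °C with compound (1% DMSO) in pH 7.6 Tris buffer with 1.5% BSA. Substrate 2 nM [3H]-anandamide plus 2 μM anandamide added for 10 min at 37 °C. [3H]-ethanolamine in the aqueous phase after chloroform/methanol extraction was scintillation counted; IC50 over 0.1 nM–1 μM.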

Row | Compound | inhibition at 0.1 µM [%] | IC50 [nM]
1 | COc1cccc(-c2ncc3c(n2)n(C)c(=O)n3C(=O)N(C)CCc2ccc(N(C)C)cc2)c1 [Example 113, N-{2-[4-(Dimethylamino)phenyl]ethyl}-2-(3-methoxyphenyl)-N,9-dimethyl-8-oxo-8,9-dihydro-7H-purine-7-carboxamide] | 103 | 3
2 | COc1cccc(-c2ncc3c(n2)n(C)c(=O)n3C(=O)N(C)CCc2ccccn2)c1 [Example 114, 2-(3-Methoxyphenyl)-N,9-dimethyl-8-oxo-N-[2-(pyridin-2-yl)ethyl]-8,9-dihydro-7H-purine-7-carboxamide] | 103 | 2
3 | COc1cccc(-c2ncc3c(n2)n(C)c(=O)n3C(=O)N(C)CCc2ccncc2)c1 [Example 115, 2-(3-Methoxyphenyl)-N,9-dimethyl-8-oxo-N-[2-(pyridin-4-yl)ethyl]-8,9-dihydro-7H-purine-7-carboxamide] | 103 | 5
4 | COc1cccc(-c2ncc3c(n2)n(C)c(=O)n3C(=O)N(C)CCOCC2CC2)c1 [Example 116, N-[2-(Cyclopropylmethoxy)ethyl]-2-(3-methoxyphenyl)-N,9-dimethyl-8-oxo-8,9-dihydro-7H-purine-7-carboxamide] | 110 | 2
5 | COc1cccc(-c2ncc3c(n2)n(C)c(=O)n3C(=O)N(C)CCC2CCOCC2)c1 [Example 117, 2-(3-Methoxyphenyl)-N,9-dimethyl-8-oxo-N-[2-(tetrahydro-2H-pyran-4-yl)ethyl]-8,9-dihydro-7H-purine-7-carboxamide] | 107 | 4
6 | COc1ccc(CCC2CCN(C(=O)n3c(=O)n(C)c4nc(-c5cccc(OC)c5)ncc43)CC2)cc1 [Example 118, 2-(3-Methoxyphenyl)-7-({4-[2-(4-methoxyphenyl)ethyl]piperidin-1-yl}carbonyl)-9-methyl-7,9-dihydro-8H-purine-8-one] | 103 | 5
7 | COCCC1CCN(C(=O)n2c(=O)n(C)c3nc(-c4cccc(OC)c4)ncc32)CC1 [Example 119, 7-{[4-(2-Methoxyethyl)piperidin-1-yl]carbonyl}-2-(3-methoxyphenyl)-9-methyl-7,9-dihydro-8H-purine-8-one] | 100 | 7
8 | Cn1c(=O)n(C(=O)N2CCN(c3ccccc3)CC2)c2cnc(-c3ccccc3)nc21 [Example 120, 9-Methyl-2-phenyl-7-[(4-phenylpiperazin-1-yl)carbonyl]-7,9-dihydro-8H-purine-8-one] | 101 | 11
9 | COc1cccc(N2CCN(C(=O)n3c(=O)n(C)c4nc(-c5ccccc5)ncc43)CC2)c1 [Example 121, 7-{[4-(3-Methoxyphenyl)piperazin-1-yl]carbonyl}-9-methyl-2-phenyl-7,9-dihydro-8H-purine-8-one] | 98 | 42
10 | COc1ccccc1N1CCN(C(=O)n2c(=O)n(C)c3nc(-c4ccccc4)ncc32)CC1 [Example 122, 7-{[4-(2-Methoxyphenyl)piperazin-1-yl]carbonyl}-9-methyl-2-phenyl-7,9-dihydro-8H-purine-8-one] | 97 | 35
11 | Cn1c(=O)n(C(=O)N2CCN(c3ccc(F)cc3)CC2)c2cnc(-c3ccccc3)nc21 [Example 123, 7-{[4-(4-Fluorophenyl)piperazin-1-yl]carbonyl}-9-methyl-2-phenyl-7,9-dihydro-8H-purine-8-one] | 101 | 4
12 | Cn1c(=O)n(C(=O)N2CCN(c3cccc(F)c3)CC2)c2cnc(-c3ccccc3)nc21 [Example 124, 7-{[4-(3-Fluorophenyl)piperazin-1-yl]carbonyl}-9-methyl-2-phenyl-7,9-dihydro-8H-purine-8-one] | 101 | 6
13 | Cn1c(=O)n(C(=O)N2CCN(c3ccccc3F)CC2)c2cnc(-c3ccccc3)nc21 [Example 125, 7-{[4-(2-Fluorophenyl)piperazin-1-yl]carbonyl}-9-methyl-2-phenyl-7,9-dihydro-8H-purine-8-one] | 96 | 30
14 | Cn1c(=O)n(C(=O)N2CCN(c3ccc(Cl)cc3)CC2)c2cnc(-c3ccccc3)nc21 [Example 126, 7-{[4-(4-Chlorophenyl)piperazin-1-yl]carbonyl}-9-methyl-2-phenyl-7,9-dihydro-8H-purine-8-one] | 99 | 7
15 | Cn1c(=O)n(C(=O)N2CCN(c3ccccc3Cl)CC2)c2cnc(-c3ccccc3)nc21 [Example 127, 7-{[4-(2-Chlorophenyl)piperazin-1-yl]carbonyl}-9-methyl-2-phenyl-7,9-dihydro-8H-purine-8-one] | 94 | 50
16 | Cc1ccc(N2CCN(C(=O)n3c(=O)n(C)c4nc(-c5ccccc5)ncc43)CC2)cc1 [Example 128, 9-Methyl-7-{[4-(4-methylphenyl)piperazin-1-yl]carbonyl}-2-phenyl-7,9-dihydro-8H-purine-8-one] | 99 | 7
17 | Cc1cccc(N2CCN(C(=O)n3c(=O)n(C)c4nc(-c5ccccc5)ncc43)CC2)c1 [Example 129, 9-Methyl-7-{[4-(3-methylphenyl)piperazin-1-yl]carbonyl}-2-phenyl-7,9-dihydro-8H-purine-8-one] | 98 | 7
18 | Cc1ccccc1N1CCN(C(=O)n2c(=O)n(C)c3nc(-c4ccccc4)ncc32)CC1 [Example 130, 9-Methyl-7-{[4-(2-methylphenyl)piperazin-1-yl]carbonyl}-2-phenyl-7,9-dihydro-8H-purine-8-one] | 94 | 42
19 | CCOc1ccc(N2CCN(C(=O)n3c(=O)n(C)c4nc(-c5ccccc5)ncc43)CC2)cc1 [Example 131, 7-{[4-(4-Ethoxyphenyl)piperazin-1-yl]carbonyl}-9-methyl-2-phenyl-7,9-dihydro-8H-purine-8-one] | 99 | 4
20 | Cn1c(=O)n(C(=O)N2CCN(c3ccc(C#N)cc3)CC2)c2cnc(-c3ccccc3)nc21 [Example 132, 4-{4-[(9-Methyl-8-oxo-2-phenyl-8,9-dihydro-7H-purine-7-yl)carbonyl]piperazin-1-yl}benzonitrile] | 99 | 6
21 | CC(=O)c1ccc(N2CCN(C(=O)n3c(=O)n(C)c4nc(-c5ccccc5)ncc43)CC2)cc1 [Example 133, 7-{[4-(4-Acetylphenyl)piperazin-1-yl]carbonyl}-9-methyl-2-phenyl-7,9-dihydro-8H-purine-8-one] | 100 | 6
22 | Cn1c(=O)n(C(=O)N2CCN(c3ccc(C(F)(F)F)cc3)CC2)c2cnc(-c3ccccc3)nc21 [Example 134, 9-Methyl-2-phenyl-7-({4-[4-(trifluoromethyl)phenyl]piperazin-1-yl}carbonyl)-7,9-dihydro-8H-purine-8-one] | 96 | 7
23 | COc1ccc(N2CCN(C(=O)n3c(=O)n(C)c4nc(-c5ccccc5)ncc43)CC2)cc1 [Example 135, 7-{[4-(4-Methoxyphenyl)piperazin-1-yl]carbonyl}-9-methyl-2-phenyl-7,9-dihydro-8H-purine-8-one] | 99 | 5
